Data from patent US20250360071A1, “AGENT FOR INDUCING CILIUM” (MED R&D Co. Ltd, priority 2022, published 2025).

What was measured:
HFDPCs = test: Co-culture system of Caco-2 and HFDPC, hair growth marker expression, Experimental Example 4; format: cell-based, human; conditions: added inside the Caco-2 insert; saponin mixture 5 μg/mL, finasteride 10 μM; after 2, 6 and 12 hours; vs control
Method: An examination was carried out using a co-culture system of Caco-2 and an HFDPC which are human intestinal epithelial cell lines. FIG. 8 is a schematic view illustrating a co-culture system of the present Experimental Example. […] A permeable membrane having a pore size of […] was disposed on the bottom surface of the 96-well insert. […] In a case where the drug is permeable to the intestinal epithelial cells, with the addition of the drug into the inside of the transwell insert of the co-culture system, the drug permeates from the apex side (lumen side) to the basal side (vascular side) of the Caco-2 cells. Furthermore, the drug that permeated acts on the HFDPCs seeded on the receiver plate. A mixture in which each saponin was mixed at a ratio shown in Table 1 below (which may hereinafter be referred to as a “saponin mixture”) was used as a sample for the examination. The saponin mixture was added to the inside of the transwell insert of the co-culture system so that a concentration thereof was 5 μg/mL. Subsequently, the expression of the hair growth marker in the HFDPCs seeded on the receiver plate was measured by quantitative real-time PCR after 2 hours, 6 hours, and 12 hours. As the hair growth markers, a CTNNB1 gene (β-catenin), an ALPL gene (alkaline phosphatase), and an FGF1 gene (fiblobrast growth factor 1) were measured. […]

hair cycle-related genes = test: Fluctuation in expression of hair cycle-related genes from transcriptome, Experimental Example 9; format: in vivo, mouse; conditions: dorsal skin, 20th day
Excerpt: A fluctuation in expression of the hair cycle-related genes was examined, based on the results of the transcriptome analysis in Experimental Example 6.

dorsal skin [1] = test: Fluorescence immunostaining of dorsal skin tissue sections, Experimental Example 10; format: in vivo, mouse; conditions: 20th day; for expression of K14 / expression of VEGF / expression of β-catenin: fluorescence immunostaining, dorsal skin
Excerpt: A mouse in each group of Experimental Examples 5 and 6 was euthanized on the 20th day, the dorsal skin was collected, and the tissue section was subjected to immunostaining.
FIG. 23 is a photomicrograph showing the results of detecting the expressions of β-catenin and K14 by fluorescence immunostaining. In addition, the nuclei were stained with 4′,6-diamidino-2-phenylindole (DAPI). The β-catenin is a hair growth promoting marker and is also a marker for the start of the anagen. K14 is an epidermal marker and is known to increase with the differentiation of hair follicle stem cells.
FIG. 24 is a photomicrograph showing the results of detecting the expression of VEGF by fluorescence immunostaining. In addition, the nuclei were stained with DAPI. VEGF is known to improve the vascularization of hair follicles, increase the size of hair follicles and hair, and promote the growth and circulation of hair follicles.

dorsal skin [2] = test: Transcriptome analysis and extended network analysis of dorsal skin, Experimental Examples 6 and 8; format: in vivo, mouse; conditions: 20th day, 1% applied daily; maslinic acid group vs tieghemelin group
Method: A mouse in each group of Experimental Example 5 and a mouse in the group which had been subjected to the same treatment as in Experimental Example 5 using 1% tieghemelin (n=6) were euthanized on the 20th day, and the dorsal skin was collected and subjected to transcriptome analysis.
(§1) Extended network analysis was performed based on the results of the transcriptome analysis in Experimental Example 6. FIGS. 20 to 22 are views showing the results of the extended network analysis. FIG. 20 is an analysis result obtained from a dataset of the minoxidil treatment group, FIG. 21 is an analysis result obtained from a dataset of the maslinic acid treatment group, and FIG. 22 is an analysis result obtained from a dataset of the tieghemelin treatment group. In FIGS. 20 to 22, a white circle indicates a gene with increased expression, and a black circle indicates a gene with decreased expression. In addition, the size of the circle indicates the magnitude of a change in expression level.

C3H male mouse = test: Hair growth promoting effect in vivo, application to depilated dorsal skin, Experimental Example 5
Method: The oleanane-type triterpenoid was applied to the dorsal skin of a mouse and the hair growth promoting effect was examined. Maslinic acid was used as the oleanane-type triterpenoid. In addition, for comparison, a group in which minoxidil was used and a control group in which only a solvent was applied were prepared.
FIG. 12 is a schematic view showing an experimental schedule. After acclimatization of a C3H male mouse, the dorsal skin was depilated with a shaver and a depilatory cream. Thereafter, 150 μL of 1% minoxidil (n=8), 1% maslinic acid (n=6), or a solvent (n=8) was applied to the mouse in each group every day for 20 days, and the mouse was observed over time.
It is known that the hair cycle of a mouse has three stages of an anagen, a catagen, and a telogen. During the anagen (the 1st day to the 16th day), the hair follicle grows into the deep subcutaneous part. In the catagen (the 17th day to the 19th day), the hair follicle stops growing and regresses to the upper subcutaneous part. In the telogen (the 20th day to the 29th day), the hair shaft is in a state where it can be lost at any time. It is known that the color of the dorsal skin of a mouse changes to pink, gray, and black due to the hair cycle. FIG. 13 is a view showing a change in the color of the dorsal skin of a mouse due to the hair cycle.

dorsal skin [3] = test: Gene ontology (GO), GO enrichment and tissue-specific expression analysis of transcriptome, Experimental Example 7; format: in vivo, mouse; conditions: 20th day; for functions specifically enriched among skin-tissue genes with increased expression (TSEA): functions not enriched in the minoxidil treatment group
Method: Gene ontology (GO) analysis and GO enrichment analysis were performed based on the results of the transcriptome analysis in Experimental Example 6.
Subsequently, term enrichment analysis of the genes with expression increased specifically with respect to the skin tissue was performed. Using tissue-specific expression analysis (TSEA), genes related to the skin tissue were filtered, and functions that were specifically enriched in the maslinic acid treatment group and the tieghemelin treatment group and were not enriched in the minoxidil treatment group were selected.

Iqcb1 = Iqcb1 expression from transcriptome / extended network analysis, Experimental Example 8; format: in vivo, mouse; conditions: dorsal skin, 20th day, 1% applied daily
Method: as §1
DDX58 is an innate immune receptor that senses viral nucleic acids in the cytoplasm and activates a downstream signal transduction cascade leading to the production of type I interferons or inflammatory cytokines. IQCB1 is a protein known to be involved in formation of cilium.

SMILES	expression of NF-κB (hair cycle-related genes)	expression of K14 (dorsal skin [1])	expression of VEGF (dorsal skin [1])	expression of β-catenin (dorsal skin [1])	pattern of differentially expressed genes in the dorsal skins (dorsal skin [2])	number of genes with decreased expression common among the minoxidil, maslinic acid and tieghemelin treatment groups (dorsal skin [3])	number of genes with increased expression common among the minoxidil, maslinic acid and tieghemelin treatment groups (dorsal skin [3])	functions specifically enriched among skin-tissue genes with increased expression (TSEA) (dorsal skin [3])	Iqcb1 expression (Iqcb1)	expression level of Iqcb1 compared with the minoxidil treatment group (Iqcb1)	further results
CC(C)(C)NC(=O)[C@H]1CC[C@H]2[C@@H]3CC[C@H]4NC(=O)C=C[C@]4(C)[C@H]3CC[C@]12C [finasteride]											expression of the hair growth marker (CTNNB1, ALPL, FGF1) in HFDPCs (HFDPCs): induced the expression of the hair growth marker regardless of the treatment time
CC1(C)CC[C@]2(C(=O)O)CC[C@]3(C)C(=CC[C@@H]4[C@@]5(C)C[C@@H](O)[C@H](O)C(C)(C)[C@@H]5CC[C@]43C)[C@@H]2C1 [maslinic acid]	decreased	increase in the expression	increased	increase in the expression	showed the same pattern	316	342	skin barriers, keratinocytes, proliferation of epithelial cells, pigmentation, and interactions between cytokines and cytokine receptors	upregulated	increased more	expression level of BMP4 (hair cycle-related genes): decreased; sizes of the hair follicle and the hair shaft (dorsal skin [1]; dorsal skin section): increased; black area indicating the late anagen, vs control group (C3H male mouse; 10th day, 1% applied daily): larger black area; speed of a transition from the telogen to the anagen (order) (C3H male mouse; 10th day, 1% applied daily): Minoxidil≈Maslinic acid>Control group; hair cycle stage observed on the 20th day (C3H male mouse; 20th day, 1% applied daily): transitioned to the next telogen; speed of transition to the telogen after the anagen and the catagen (order) (C3H male mouse; 20th day, 1% applied daily): Minoxidil=Maslinic acid>Control group; hair cycle stage observed on the 10th day (C3H male mouse; 150 μL of 1% applied daily, control transitioned from telogen to anagen on the 10th day): transition to the late anagen; influence on the body weight of the mouse (C3H male mouse; 150 μL of 1% applied to dorsal skin every day for 20 days): No influence on the body weight; number of genes with decreased expression common between the minoxidil and maslinic acid treatment groups (dorsal skin [3]): Seventy-two; number of genes with increased expression common between the minoxidil and maslinic acid treatment groups (dorsal skin [3]): Eighty-one
C[C@@H]1O[C@@H](O[C@@H]2[C@@H](O)[C@H](O[C@@H]3[C@@H](O)[C@@H](O)[C@H](O[C@H]4[C@H](OC(=O)[C@]56CCC(C)(C)C[C@H]5C5=CC[C@@H]7[C@@]8(C)C[C@H](O)[C@H](O[C@@H]9O[C@H](C(=O)O)[C@@H](O)[C@H](O)[C@H]9O)[C@@](C)(CO)[C@@H]8[C@H](O)C[C@@]7(C)[C@]5(C)C[C@H]6O)OC[C@H](O)[C@@H]4O)O[C@H]3C)OC[C@H]2O)[C@H](O)[C@H](O)[C@H]1O [tieghemelin]	decreased	highly expressed	highly expressed	highly expressed	showed the same pattern	316	342	the proliferation of keratinocytes and epithelial cells, the control of the MAPK cascade, the intercellular adhesion, and the activation of the cytokine receptor interaction	upregulated	increased more	expression level of Aepb1 (hair cycle-related genes): decreased; expression level of KRT15 (hair cycle-related genes): decreased; stage of the hair follicle from its shape (dorsal skin [1]; dorsal skin section): anagen (II); number of genes with decreased expression common between the minoxidil and tieghemelin treatment groups (dorsal skin [3]): Ninety-four; number of genes with increased expression common between the minoxidil and tieghemelin treatment groups (dorsal skin [3]): One-hundred-twenty-eight
